# Experiments:
# [1] = tested on: HCV genotype 1b replicon NS5A L31M; assay: Transient HCV 1b replicon, NS5A mutant L31M; assay type: cell-based; details: Hepatitis C virus, read-out: EC50 L31M
# Text: (§1) In a transient set-up, a Huh-7 lunet hepatoma cell line was transiently transfected with an autonomously replicating RNA encoding a bi-cistronic expression construct. This construct comprises a firefly luciferase reporter gene preceding the NS3-NS5B subgenomic region of HCV (genotype 1a H77 or 1b Con1). Translation of the HCV subgenomic region is mediated by an internal ribosome entry site of encephalomyocarditis virus. The construct is furthermore flanked by 5′ and 3′ untranslated regions of HCV (genotype 1a H77 or 1b Con 1, respectively), which allow for replication of the RNA.
# (§2) In addition to the wild-type constructs, site-directed mutations were introduced into the transient HCV genotype 1b replicon in the gene encoding for the non-structural protein 5A (NS5A). More precisely, amino acid residues 28, 30, 31 and 93 in NS5A were independently altered.
# (§3) Cells were plated in 384 well plates in the presence of test and control compounds, which were added in various concentrations. Following an incubation of two days, replication of the HCV subgenomic replicon RNA was measured by assaying luciferase activity (using standard luciferase assay substrates and reagents and a Perkin Elmer ViewLux™ ultraHTS microplate imager). HCV subgenomic replicon containing cells in the control cultures have high luciferase expression in the absence of any inhibitor. The inhibitory activity of the compound was monitored, enabling a dose-response curve for each test compound. EC50 values were then calculated, which represent the amount of compound required to decrease the level of detected luciferase activity by 50%, or more specifically, to reduce the ability of the genetically linked HCV subgenomic RNA to replicate.
# [2] = tested on: HCV genotype 1b replicon NS5A Y93H; assay: Transient HCV 1b replicon, NS5A mutant Y93H; assay type: cell-based; details: Hepatitis C virus, read-out: EC50 Y93H
# Text: as §1, §2, §3
# [3] = Counterscreen MT4-LTR-Luc; assay type: cell-based; details: human
# Text: (§4) Counterscreen cell lines included a Huh-7 hepatoma cell line containing a human cytomegalovirus major immediate-early promoter-Luc construct (Huh7-CMV-Luc) and an MT4 T-cell line containing a long terminal repeat-Luc reporter (MT4-LTR-Luc).
# [4] = tested on: HCV type 1b replicon (Huh-7 luc/neo cells); assay: HCV replicon assay, stable transfection (Huh-Luc, luciferase); assay type: cell-based; details: Hepatitis C virus, Huh-7, 72 h, three days incubation, average of all tests
# Text: The compounds of formula (I) were examined for inhibitory activity in the HCV replicon. This cellular assay is based on a bicistronic expression construct, as described by Lohmann et al. (Science (1999) 285: 110-113; Journal of Virology (2003) 77: 3007-3019) with modifications described by Krieger et al. (Journal of Virology (2001) 75: 4614-4624), and Lohmann et al. (Journal of Virology (2003) 77: 3007-3019) for genotype 1b and by Yi et al. (Journal of Virology (2004) 78: 7904-7915) for genotype 1a, in a multi-target screening strategy.
# The method was as follows. The assay utilized the stably transfected cell line Huh-7 luc/neo (hereafter referred to as Huh-Luc). This cell line harbors an RNA encoding a bicistronic expression construct comprising the wild type NS3-NS5B regions of HCV type 1b translated from an Internal Ribosome Entry Site (IRES) from encephalomyocarditis virus (EMCV), preceded by a reporter portion (FfL-luciferase), and a selectable marker portion (neoR, neomycine phosphotransferase). The construct is flanked by 5′ and 3′ NTRs (non-translated regions) from HCV type 1b. Continued culture of the replicon cells in the presence of G418 (neoR) is dependent on the replication of the HCV RNA. The stably transfected replicon cells that replicate HCV RNA autonomously and to high levels, encoding inter alia luciferase, were used for screening the antiviral compounds.
# The replicon cells were plated in 384 well plates in the presence of the test and control compounds which were added in various concentrations. Following an incubation of three days, HCV replication was measured by assaying luciferase activity (using standard luciferase assay substrates and reagents and a Perkin Elmer ViewLux™ ultraHTS microplate imager). Replicon cells in the control cultures have high luciferase expression in the absence of any inhibitor. The inhibitory activity of the compound was monitored on the Huh-Luc cells, enabling a dose-response curve for each test compound. EC50 values were then calculated, which represent the amount of compound required to decrease the level of detected luciferase activity by 50%, or more specifically, to reduce the ability of the genetically linked HCV replicon RNA to replicate.
# Where a compound of formula (I) was tested more than once in the replicon assay, the average of all test results is given in this Table 2.
# [5] = tested on: HCV genotype 1b replicon NS5A L28T; assay: Transient HCV 1b replicon, NS5A mutant L28T; assay type: cell-based; details: Hepatitis C virus, read-out: EC50 L28T
# Text: as §1, §2, §3
# [6] = tested on: HCV genotype 1b Con1 replicon (Huh-7 lunet cells); assay: HCV replicon assay, transient transfection, genotype 1b; assay type: cell-based; details: Hepatitis C virus, 48 h, genotype 1b Con1, two days incubation, luciferase
# Text: as §1, §3
# (§5) Where a compound of formula (I) was tested more than once in the transient replicon assay, the average of all test results is given in Table 3.
# [7] = tested on: HCV genotype 1b replicon NS5A R30H; assay: Transient HCV 1b replicon, NS5A mutant R30H; assay type: cell-based; details: Hepatitis C virus, read-out: EC50 R30H
# Text: as §1, §2, §3
# [8] = Counterscreen Huh7-CMV-Luc; assay type: cell-based; details: human
# Text: as §4
# [9] = tested on: HCV genotype 1b replicon NS5A Y93C; assay: Transient HCV 1b replicon, NS5A mutant Y93C; assay type: cell-based; details: Hepatitis C virus, read-out: EC50 Y93C
# Text: as §1, §2, §3
# [10] = tested on: HCV genotype 1b replicon NS5A L31V; assay: Transient HCV 1b replicon, NS5A mutant L31V; assay type: cell-based; details: Hepatitis C virus, read-out: EC50 L31V
# Text: as §1, §2, §3
# [11] = Pharmacokinetic analysis after single oral administration, liver concentration; assay type: in vivo; details: male Sprague-Dawley rats, 10 mg/kg oral, solution in PEG400
# Experimental: Compounds were dosed orally as a solution in PEG400 to male Sprague-Dawley rats at a dose level of 10 mg/kg. At serial time points, after dosing, the animals were sacrificed and liver samples collected. All samples were analyzed using a qualified research LC-MS/MS method to determine the concentration of the tested compounds in liver. Non-compartmental analysis using the lin/log trapezoidal rule was performed using WinNonlin™ Professional (Version 5.2.1).
# [12] = tested on: HCV genotype 1b replicon NS5A L31F; assay: Transient HCV 1b replicon, NS5A mutant L31F; assay type: cell-based; details: Hepatitis C virus, read-out: EC50 L31F
# Text: as §1, §2, §3
# [13] = tested on: HCV genotype 1a H77 replicon (Huh-7 lunet cells); assay: HCV replicon assay, transient transfection, genotype 1a; assay type: cell-based; details: Hepatitis C virus, 48 h, genotype 1a H77, two days incubation, luciferase
# Text: as §1, §3, §5
Structure (SMILES),EC50 [1] [nM],EC50 [2] [nM],CC50 [3] [nM],EC50 [4] [nM],EC50 [5] [nM],EC50 [6] [nM],EC50 [7] [nM],CC50 [8] [nM],EC50 [9] [nM],EC50 [10] [nM],Liver AUC [11] [ng·h/g],EC50 [12] [nM],EC50 [13] [nM]
CC[C@H](C)[C@H](NC(=O)OC)C(=O)N1CCC[C@H]1c1ncc(-c2ccc3cc(-c4ccc5nc([C@@H]6CCCN6C(=O)[C@@H](NC(=O)OC)[C@@H](C)CC)[nH]c5c4)ccc3c2)[nH]1 [Compound 8],0.258,0.587,> 984,0.003,0.206,0.005,0.116,> 984,< 0.013,0.311,50655,0.016,0.204
COC(=O)N[C@H](C(=O)N1CCC[C@H]1c1ncc(-c2ccc3cc(-c4ccc5nc([C@@H]6CCCN6C(=O)[C@@H](NC(=O)OC)[C@@H](C)OC)[nH]c5c4)ccc3c2)[nH]1)C(C)C [Compound 9],0.072,0.042,> 984,0.007,0.081,0.007,0.045,> 984,< 0.013,0.086,6202,< 0.017,0.03
COC(=O)N[C@H](C(=O)N1CCC[C@H]1c1nc2ccc(-c3ccc4cc(-c5cnc([C@@H]6CCCN6C(=O)[C@@H](NC(=O)OC)[C@@H](C)OC)[nH]5)ccc4c3)cc2[nH]1)C(C)C [Compound 11],0.087,0.167,> 984,0.006,0.117,0.012,0.05,> 984,< 0.013,0.141,7928,0.021,0.048
CC[C@H](C)[C@H](NC(=O)OC)C(=O)N1CCC[C@H]1c1nc2ccc(-c3ccc4cc(-c5cnc([C@@H]6CCCN6C(=O)[C@@H](NC(=O)OC)C(C)C)[nH]5)ccc4c3)cc2[nH]1 [Compound 13],0.053,0.215,> 984,0.002,0.109,0.002,0.027,> 984,< 0.013,0.141,51330,< 0.013,0.051
CC[C@H](C)[C@H](NC(=O)OC)C(=O)N1CCC[C@H]1c1ncc(-c2ccc3cc(-c4ccc5[nH]c([C@@H]6CCCN6C(=O)[C@@H](NC(=O)OC)C(C)C)nc5c4)ccc3c2)[nH]1 [Compound 16],0.093,0.343,> 984,0.003,0.151,0.003,0.07,> 984,< 0.013,0.411,12630,0.017,0.098
CC[C@H](C)[C@H](NC(=O)OC)C(=O)N1CCC[C@H]1c1ncc(-c2ccc3cc(-c4ccc5[nH]c([C@@H]6CCCN6C(=O)[C@@H](NC(=O)OC)[C@@H](C)OC)nc5c4)ccc3c2)[nH]1 [Compound 17],0.025,0.034,9300,0.005,0.037,0.005,0.036,11100,0.003,0.037,4213,0.005,0.049
CC[C@H](C)[C@H](NC(=O)OC)C(=O)N1CCC[C@H]1c1nc2cc(-c3ccc4cc(-c5cnc([C@@H]6CCCN6C(=O)[C@@H](NC(=O)OC)[C@@H](C)OC)[nH]5)ccc4c3)ccc2[nH]1 [Compound 18],0.054,0.08,9680,0.003,0.041,0.004,0.039,8680,0.003,0.052,14091,0.005,0.018

# From US9427428B2, “Benzimidazole-imidazole derivatives” (Janssen Sciences Ireland UC, priority 2009, dated 2016)
